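Tested at 5 concentrations; 48 h exposure; 96-well plates; endpoints linearly interpolated, else capped at highest concentration. TGI: total growth inhibition.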
Key:
Assay in all cases: inhibition of tumour cell growth, NCI panel, 48 h
K-562 leukemia = test system: K-562 leukemia
HCT-15 colon = test system: HCT-15 colon
MOLT-4 leukemia = test system: MOLT-4 leukemia
EKVX NSCLC = test system: EKVX NSCLC
ACHN renal = test system: ACHN renal
HS 578T breast = test system: HS 578T breast
HL-60(TB) leukemia = test system: HL-60(TB) leukemia
LOX IMVI melanoma = test system: LOX IMVI melanoma
OVCAR-3 ovarian = test system: OVCAR-3 ovarian
OVCAR-4 ovarian = test system: OVCAR-4 ovarian
PC-3 prostate = test system: PC-3 prostate
SK-MEL-2 melanoma = test system: SK-MEL-2 melanoma
M14 melanoma = test system: M14 melanoma
COLO 205 colon = test system: COLO 205 colon
SF-295 CNS = test system: SF-295 CNS
U251 CNS = test system: U251 CNS
IGROV1 ovarian = test system: IGROV1 ovarian
CCRF-CEM leukemia = test system: CCRF-CEM leukemia
SNB-19 CNS = test system: SNB-19 CNS
SNB-75 CNS = test system: SNB-75 CNS
DU-145 prostate = test system: DU-145 prostate
NCI/ADR-RES ovarian = test system: NCI/ADR-RES ovarian
MDA-MB-231 breast = test system: MDA-MB-231 breast
OVCAR-5 ovarian = test system: OVCAR-5 ovarian
UO-31 renal = test system: UO-31 renal
A498 renal = test system: A498 renal
MDA-MB-435 = test system: MDA-MB-435
BT-549 breast = test system: BT-549 breast
MDA-N = test system: MDA-N
786-0 renal = test system: 786-0 renal
HCT-116 colon = test system: HCT-116 colon
SK-MEL-28 melanoma = test system: SK-MEL-28 melanoma
NCI-H460 lung = test system: NCI-H460 lung
KM12 colon = test system: KM12 colon
NCI-H522 lung = test system: NCI-H522 lung
HT29 colon = test system: HT29 colon
RPMI-8226 leukemia = test system: RPMI-8226 leukemia
HOP-92 NSCLC = test system: HOP-92 NSCLC
SR leukemia = test system: SR leukemia
MCF7 breast = test system: MCF7 breast
HOP-62 NSCLC = test system: HOP-62 NSCLC
SF-268 CNS = test system: SF-268 CNS
CAKI-1 renal = test system: CAKI-1 renal
TK-10 renal = test system: TK-10 renal
NCI-H226 lung = test system: NCI-H226 lung
OVCAR-8 ovarian = test system: OVCAR-8 ovarian
SF-539 CNS = test system: SF-539 CNS
SK-OV-3 ovarian = test system: SK-OV-3 ovarian
UACC-257 melanoma = test system: UACC-257 melanoma
SK-MEL-5 melanoma = test system: SK-MEL-5 melanoma
A549 NSCLC = test system: A549 NSCLC
T-47D breast = test system: T-47D breast
MALME-3M melanoma = test system: MALME-3M melanoma
RXF 393 renal = test system: RXF 393 renal
SN12C renal = test system: SN12C renal
NCI-H23 lung = test system: NCI-H23 lung
HCC-2998 colon = test system: HCC-2998 colon
UACC-62 melanoma = test system: UACC-62 melanoma
SW-620 colon = test system: SW-620 colon

COc1ccc(/C=C/c2nsc(/C=C/c3ccc(OC)cc3)n2)cc1
TGI (K-562 leukemia): > 100 µM
TGI (HCT-15 colon): > 100 µM
TGI (MOLT-4 leukemia): > 100 µM
TGI (EKVX NSCLC): > 100 µM
TGI (ACHN renal): > 100 µM
TGI (HS 578T breast): > 100 µM
TGI (HL-60(TB) leukemia): > 100 µM
TGI (LOX IMVI melanoma): > 100 µM
TGI (OVCAR-3 ovarian): > 100 µM
TGI (OVCAR-4 ovarian): > 100 µM
TGI (PC-3 prostate): > 100 µM
TGI (SK-MEL-2 melanoma): > 100 µM
TGI (M14 melanoma): > 100 µM
TGI (COLO 205 colon): > 100 µM
TGI (SF-295 CNS): > 100 µM
TGI (U251 CNS): > 100 µM
TGI (IGROV1 ovarian): > 100 µM
TGI (CCRF-CEM leukemia): > 100 µM
TGI (SNB-19 CNS): > 100 µM
TGI (SNB-75 CNS): > 100 µM
TGI (DU-145 prostate): > 100 µM
TGI (NCI/ADR-RES ovarian): > 100 µM
TGI (MDA-MB-231 breast): > 100 µM
TGI (OVCAR-5 ovarian): > 100 µM
TGI (UO-31 renal): > 100 µM
TGI (A498 renal): > 100 µM
TGI (MDA-MB-435): > 100 µM
TGI (BT-549 breast): > 100 µM
TGI (MDA-N): > 100 µM
TGI (786-0 renal): 41.8 µM
TGI (HCT-116 colon): > 100 µM
TGI (SK-MEL-28 melanoma): > 100 µM
TGI (NCI-H460 lung): 88.7 µM
TGI (KM12 colon): > 100 µM
TGI (NCI-H522 lung): > 100 µM
TGI (HT29 colon): > 100 µM
TGI (RPMI-8226 leukemia): > 100 µM
TGI (HOP-92 NSCLC): > 100 µM
TGI (SR leukemia): > 100 µM
TGI (MCF7 breast): > 100 µM
TGI (HOP-62 NSCLC): > 100 µM
TGI (SF-268 CNS): > 100 µM
TGI (CAKI-1 renal): > 100 µM
TGI (TK-10 renal): > 100 µM
TGI (NCI-H226 lung): > 100 µM
TGI (OVCAR-8 ovarian): > 100 µM
TGI (SF-539 CNS): > 100 µM
TGI (SK-OV-3 ovarian): > 100 µM
TGI (UACC-257 melanoma): > 100 µM
TGI (SK-MEL-5 melanoma): > 100 µM
TGI (A549 NSCLC): > 100 µM
TGI (T-47D breast): > 100 µM
TGI (MALME-3M melanoma): > 100 µM
TGI (RXF 393 renal): > 100 µM

O=C1C=CC(=O)c2c(O)c(N3CCN(c4ccccn4)CC3)c(Cl)c(O)c21
TGI (HCT-15 colon): 2.48 µM
TGI (MOLT-4 leukemia): 2.01 µM
TGI (EKVX NSCLC): 19.6 µM
TGI (ACHN renal): 6.51 µM
TGI (HS 578T breast): 4.97 µM
TGI (HL-60(TB) leukemia): 0.692 µM
TGI (LOX IMVI melanoma): 0.299 µM
TGI (OVCAR-3 ovarian): 4 µM
TGI (OVCAR-4 ovarian): 3.02 µM
TGI (PC-3 prostate): 4.48 µM
TGI (M14 melanoma): 2.85 µM
TGI (COLO 205 colon): 2.8 µM
TGI (SF-295 CNS): 10.7 µM
TGI (IGROV1 ovarian): 3.22 µM
TGI (CCRF-CEM leukemia): 1.84 µM
TGI (SNB-19 CNS): 18 µM
TGI (SN12C renal): 3.36 µM
TGI (SNB-75 CNS): 3.43 µM
TGI (NCI-H23 lung): 2.45 µM
TGI (DU-145 prostate): 10.5 µM
TGI (NCI/ADR-RES ovarian): 8.98 µM
TGI (MDA-MB-231 breast): 3.55 µM
TGI (HCC-2998 colon): 5.99 µM
TGI (UACC-62 melanoma): 2.01 µM
TGI (OVCAR-5 ovarian): 17.9 µM
TGI (UO-31 renal): 3.68 µM
TGI (A498 renal): 9.68 µM
TGI (MDA-MB-435): 9.29 µM
TGI (BT-549 breast): 3.43 µM
TGI (MDA-N): 2.81 µM
TGI (SW-620 colon): 1.94 µM
TGI (786-0 renal): 1.71 µM
TGI (HCT-116 colon): 3.25 µM
TGI (SK-MEL-28 melanoma): 3.37 µM
TGI (NCI-H460 lung): 8.53 µM
TGI (KM12 colon): 7.02 µM
TGI (NCI-H522 lung): 3.5 µM
TGI (HT29 colon): 2.05 µM
TGI (HOP-92 NSCLC): 2.72 µM
TGI (SR leukemia): 4.96 µM
TGI (MCF7 breast): 3.01 µM
TGI (HOP-62 NSCLC): 9.58 µM
TGI (SF-268 CNS): 7.44 µM
TGI (CAKI-1 renal): 4.55 µM
TGI (TK-10 renal): 4.94 µM
TGI (NCI-H226 lung): 10.2 µM
TGI (OVCAR-8 ovarian): 6.25 µM
TGI (SF-539 CNS): 3.2 µM
TGI (SK-OV-3 ovarian): 21.2 µM
TGI (UACC-257 melanoma): 3.87 µM
TGI (SK-MEL-5 melanoma): 2.95 µM
TGI (A549 NSCLC): 11.8 µM
TGI (T-47D breast): 3.07 µM
TGI (MALME-3M melanoma): 3.05 µM
TGI (RXF 393 renal): 3.16 µM

C(=N\c1nc2cc3sc(/N=C/c4cccs4)nc3cc2s1)/c1cccs1
TGI (K-562 leukemia): > 100 µM
TGI (HCT-15 colon): > 100 µM
TGI (MOLT-4 leukemia): > 100 µM
TGI (EKVX NSCLC): > 100 µM
TGI (ACHN renal): > 100 µM
TGI (HS 578T breast): > 100 µM
TGI (HL-60(TB) leukemia): > 100 µM
TGI (LOX IMVI melanoma): > 100 µM
TGI (OVCAR-3 ovarian): > 100 µM
TGI (OVCAR-4 ovarian): > 100 µM
TGI (PC-3 prostate): > 100 µM
TGI (SK-MEL-2 melanoma): > 100 µM
TGI (M14 melanoma): > 100 µM
TGI (COLO 205 colon): 12.4 µM
TGI (SF-295 CNS): > 100 µM
TGI (U251 CNS): > 100 µM
TGI (IGROV1 ovarian): > 100 µM
TGI (CCRF-CEM leukemia): > 100 µM
TGI (SNB-19 CNS): > 100 µM
TGI (SN12C renal): > 100 µM
TGI (SNB-75 CNS): > 100 µM
TGI (NCI-H23 lung): > 100 µM
TGI (DU-145 prostate): > 100 µM
TGI (NCI/ADR-RES ovarian): > 100 µM
TGI (MDA-MB-231 breast): > 100 µM
TGI (OVCAR-5 ovarian): > 100 µM
TGI (UO-31 renal): > 100 µM
TGI (A498 renal): > 100 µM
TGI (MDA-MB-435): > 100 µM
TGI (BT-549 breast): > 100 µM
TGI (MDA-N): > 100 µM
TGI (786-0 renal): > 100 µM
TGI (HCT-116 colon): > 100 µM
TGI (SK-MEL-28 melanoma): > 100 µM
TGI (NCI-H460 lung): > 100 µM
TGI (KM12 colon): > 100 µM
TGI (NCI-H522 lung): > 100 µM
TGI (HT29 colon): > 100 µM
TGI (RPMI-8226 leukemia): > 100 µM
TGI (HOP-92 NSCLC): > 100 µM
TGI (SR leukemia): > 100 µM
TGI (MCF7 breast): > 100 µM
TGI (HOP-62 NSCLC): > 100 µM
TGI (SF-268 CNS): > 100 µM
TGI (CAKI-1 renal): > 100 µM
TGI (TK-10 renal): > 100 µM
TGI (NCI-H226 lung): 88.1 µM
TGI (OVCAR-8 ovarian): > 100 µM
TGI (SF-539 CNS): > 100 µM
TGI (SK-OV-3 ovarian): > 100 µM
TGI (UACC-257 melanoma): > 100 µM
TGI (SK-MEL-5 melanoma): > 100 µM
TGI (A549 NSCLC): > 100 µM
TGI (T-47D breast): > 100 µM
TGI (MALME-3M melanoma): > 100 µM
TGI (RXF 393 renal): > 100 µM
